# Bridge positions count the residues as written; N and C are the ends. Peptide text beside a SMILES is read from it. I, II: the chains in the order shown.
# Columns and labels:
# [1] = test system: Clinical Cadida albicans DF2672R Source: Urine; assay type: cell-based, Candida albicans
# Procedure: (§1) MICs was determined by broth macrodilution method modified from that described by the National Committee for Clinical Laboratory Standards (NCCL). The Mueller Hinton Broth (MHB) at ⅙ strength and without addition of Ca^2+ and Mg^2+ was used for dilution. Serial twofold dilutions of V2 dimer solution was prepared in MHB (⅙ strength) in test tubes. 1 ml of inoculum of test organisms in MHB (⅙ strength) was added to 1 ml of each dilution of V2 dimer to yield as final concentration of 10^4 to 10^5 colony forming units/ml in each test tube. The tubes were incubated at 35° C. for 16 to 20 hours. A positive control containing only the broth and organism, and a negative control tube containing only the broth were also incubated in parallel to the test samples. The above was repeated for each different test organism in separate experiments. The MIC of V2 dimer peptide for each clinical isolate or reference organism was read as the lowest concentration of peptide that inhibited visible growth of the test organism.
# (§2) The MIC was also determined for other peptides and compared to gentamicin.
# [2] = test system: Clinical Pseudomonas aeruginosa PAE 240 DU14476/07 Source: Urine; assay type: cell-based; conditions: Clinical PAE 240 DU14476/07 Source: Urine
# Procedure: as §1, §2
# [3] = test system: Clinical Pseudomonas aeruginosa PAE 230 DR4877/07 Source: Sputum; assay type: cell-based; conditions: Clinical PAE 230 DR4877/07 Source: Sputum
# Procedure: as §1, §2
# [4] = test system: Candida albicans ATCC10231; assay type: cell-based
# Procedure: as §1, §2
# [5] = test system: Clinical Pseudomonas aeruginosa DM 023155 Source: Eye; assay type: cell-based; conditions: Clinical DM 023155 Source: Eye
# Procedure: as §1, §2
# [6] = test system: Clinical Staphylococcus aureus DM4001 Source: Eye; assay type: cell-based
# Procedure: as §1, §2
# [7] = test system: Clinical Pseudomonas aeruginosa 07DM 023257 Source: Eye; assay type: cell-based; conditions: Clinical 07DM 023257 Source: Eye
# Procedure: as §1, §2
# [8] = test system: Clinical Escherichia coli DB16027 Source: Blood; assay type: cell-based; conditions: Clinical DB16027 Source: Blood
# Procedure: as §1, §2
# [9] = test system: Clinical Pseudomonas aeruginosa DM 023104 Source: Eye; assay type: cell-based; conditions: Clinical DM 023104 Source: Eye
# Procedure: as §1, §2
# [10] = test system: Clinical Pseudomonas aeruginosa PAE 249 DM15013 Source: Wound; assay type: cell-based; conditions: Clinical PAE 249 DM15013 Source: Wound
# Procedure: as §1, §2
# [11] = test system: Clinical Pseudomonas aeruginosa 07DM023376 Source: Eye; assay type: cell-based; conditions: Clinical 07DM023376 Source: Eye
# Procedure: as §1, §2
# [12] = test system: Fusarium solani ATCC 36031; assay type: cell-based
# Procedure: as §1, §2
# [13] = test system: Escherichia coli ATCC25922; assay type: cell-based
# Procedure: as §1, §2
# [14] = test system: Clinical Pseudomonas aeruginosa PAE 239 DM5790/07 Source: Wound; assay type: cell-based; conditions: Clinical PAE 239 DM5790/07 Source: Wound
# Procedure: as §1, §2
# [15] = test system: Clinical Escherichia coli DU46381R Source: Urine; assay type: cell-based
# Procedure: as §1, §2
MIC [1],MIC [2],MIC [3],MIC [4],MIC [5],MIC [6],MIC [7],MIC [8],MIC [9],MIC [10],MIC [11],MIC [12],MIC [13],MIC [14],MIC [15],SMILES
>50 µg/mL,25 µg/mL,>50 µg/mL,>50 µg/mL,>50 µg/mL,>50 µg/mL,>50 µg/mL,>50 µg/mL,>50 µg/mL,>50 µg/mL,>50 µg/mL,>100 µg/mL,>50 µg/mL,>50 µg/mL,50 µg/mL,"CC(C)[C@H](NC(=O)[C@H](CCCCN)NC(=O)[C@H](CCCNC(=N)N)NC(=O)CNC(=O)[C@@H](N)CCCNC(=N)N)C(=O)N[C@H](C(=O)N[C@@H](CCCNC(=N)N)C(=O)N[C@@H](CCCNC(=N)N)C(=O)O)C(C)C [V2-8AA, RGRKVVRR] (H-RGRKVVRR-OH; N-terminus and C-terminus assumed)"
>50 µg/mL,>50 µg/mL,>50 µg/mL,25 µg/mL,>50 µg/mL,>50 µg/mL,>50 µg/mL,>50 µg/mL,>50 µg/mL,>50 µg/mL,>50 µg/mL,>100 µg/mL,>50 µg/mL,>50 µg/mL,>50 µg/mL,"CC(C)[C@H](NC(=O)[C@@H](NC(=O)[C@H](CCCNC(=N)N)NC(=O)[C@H](CCCNC(=N)N)NC(=O)[C@@H](NC(=O)[C@@H](NC(=O)[C@H](CCCCN)NC(=O)[C@H](CCCNC(=N)N)NC(=O)CNC(=O)[C@@H](N)CCCNC(=N)N)C(C)C)C(C)C)C(C)C)C(=O)O [V4 monomer, RGRKVVRRVV] (H-RGRKVVRRVV-OH; N-terminus and C-terminus assumed)"
12.5 µg/mL,12.5 µg/mL,>50 µg/mL,12.5 µg/mL,50 µg/mL,12.5 µg/mL,>50 µg/mL,6.25 µg/mL,25 µg/mL,50 µg/mL,25 µg/mL,25 µg/mL,12.5 µg/mL,>50 µg/mL,6.25 µg/mL,"N=C(N)NCCC[C@H](NC(=O)[C@H](CCCNC(=N)N)NC(=O)[C@H](Cc1c[nH]c2ccccc12)NC(=O)[C@H](Cc1c[nH]c2ccccc12)NC(=O)[C@H](CCCCN)NC(=O)[C@H](CCCNC(=N)N)NC(=O)CNC(=O)[C@@H](N)CCCNC(=N)N)C(=O)O [W2-8AA, RGRKWWRR] (H-RGRKWWRR-OH; N-terminus and C-terminus assumed)"
50 µg/mL,6.25 µg/mL,>50 µg/mL,25 µg/mL,>50 µg/mL,>50 µg/mL,>50 µg/mL,25 µg/mL,>50 µg/mL,>50 µg/mL,50 µg/mL,50 µg/mL,25 µg/mL,>50 µg/mL,25 µg/mL,"N=C(N)NCCC[C@H](NC(=O)[C@H](CCCNC(=N)N)NC(=O)[C@H](Cc1ccc(O)cc1)NC(=O)[C@H](Cc1ccc(O)cc1)NC(=O)[C@H](CCCCN)NC(=O)[C@H](CCCNC(=N)N)NC(=O)CNC(=O)[C@@H](N)CCCNC(=N)N)C(=O)O [Y2-8AA, RGRKYYRR] (H-RGRKYYRR-OH; N-terminus and C-terminus assumed)"

# Second part, the compound before the results:
SMILES,MIC [1],MIC [2],MIC [3],MIC [4],MIC [5],MIC [6],MIC [7],MIC [8],MIC [9],MIC [10],MIC [11],MIC [12],MIC [13],MIC [14],MIC [15]
"CC(C)[C@H](NC(=O)[C@H](CCCCN)NC(=O)[C@H](CCCNC(=N)N)NC(=O)CNC(=O)[C@@H](N)CCCNC(=N)N)C(=O)N[C@H](C(=O)N[C@@H](CCCNC(=N)N)C(=O)N[C@@H](CCCNC(=N)N)C(=O)NCCCC[C@H](NC(=O)[C@H](CCCNC(=N)N)NC(=O)[C@H](CCCNC(=N)N)NC(=O)[C@@H](NC(=O)[C@@H](NC(=O)[C@H](CCCCN)NC(=O)[C@H](CCCNC(=N)N)NC(=O)CNC(=O)[C@@H](N)CCCNC(=N)N)C(C)C)C(C)C)C(=O)NCCCC[C@H](NC(=O)[C@H](CCCCNC(=O)[C@H](CCCNC(=N)N)NC(=O)[C@H](CCCNC(=N)N)NC(=O)[C@@H](NC(=O)[C@@H](NC(=O)[C@H](CCCCN)NC(=O)[C@H](CCCNC(=N)N)NC(=O)CNC(=O)[C@@H](N)CCCNC(=N)N)C(C)C)C(C)C)NC(=O)[C@H](CCCNC(=N)N)NC(=O)[C@H](CCCNC(=N)N)NC(=O)[C@@H](NC(=O)[C@@H](NC(=O)[C@H](CCCCN)NC(=O)[C@H](CCCNC(=N)N)NC(=O)CNC(=O)[C@@H](N)CCCNC(=N)N)C(C)C)C(C)C)C(=O)N[C@@H](CCCCN)C(=O)O)C(C)C [V2-tetramer] (I: H-RGRKVVRRKKK-OH / II: H-RGRKVVRRK / III: H-RGRKVVRR / IV: H-RGRKVVRR; amide I:9-IV:C, I:10-II:C, II:9-III:C; N-terminus assumed)",12.5 µg/mL,6.25 µg/mL,12.5 µg/mL,12.5 µg/mL,6.25 µg/mL,12.5 µg/mL,12.5 µg/mL,6.25 µg/mL,6.25 µg/mL,6.25 µg/mL,6.25 µg/mL,3.125 µg/mL,12.5 µg/mL,12.5 µg/mL,6.25 µg/mL
N=C(N)NCCC[C@H](NC(=O)CNC(=O)[C@@H](N)CCCNC(=N)N)C(=O)N[C@@H](CCCCN)C(=O)N[C@@H](Cc1c[nH]c2ccccc12)C(=O)N[C@@H](Cc1c[nH]c2ccccc12)C(=O)N[C@@H](CCCNC(=N)N)C(=O)N[C@@H](CCCNC(=N)N)C(=O)NCCCC[C@H](NC(=O)[C@H](CCCNC(=N)N)NC(=O)[C@H](CCCNC(=N)N)NC(=O)[C@H](Cc1c[nH]c2ccccc12)NC(=O)[C@H](Cc1c[nH]c2ccccc12)NC(=O)[C@H](CCCCN)NC(=O)[C@H](CCCNC(=N)N)NC(=O)CNC(=O)[C@@H](N)CCCNC(=N)N)C(=O)N[C@@H](CCCCN)C(=O)O [W2-dimer] (I: H-RGRKWWRRKK-OH / II: H-RGRKWWRR; amide I:9-II:C; N-terminus assumed),12.5 µg/mL,12.5 µg/mL,12.5 µg/mL,12.5 µg/mL,12.5 µg/mL,12.5 µg/mL,12.5 µg/mL,12.5 µg/mL,12.5 µg/mL,6.25 µg/mL,25 µg/mL,12.5 µg/mL,25 µg/mL,12.5 µg/mL,6.25 µg/mL

# Source: US9220264B2, “Multimeric forms of antimicrobial peptides” (Singapore Health Services Pte Ltd., priority 2008, dated 2015)
